# Key:
# [1] = test system: HIV; experiment: Evaluation of Elvitegravir for use in the device: potency
# Text: (§1) The active agent formulation includes more than one active agent and an excipient. One or more of the more than one active agent can be one or a combination of a therapeutic, a preventative, a prophylactic and/or a contraceptive. […] Not all active agents are amenable for use in the described device. Active agents having sufficient aqueous solubility and stability and dosing requirements and that are amenable to size parameters of the device are suitable for use in the described device. Moreover, in embodiments, the active agents retain a high level of purity that is both safe and efficacious to the user throughout the intended dosage duration and are not susceptible to immediate degradation caused by environmental contents (e.g., body fluids, physiological temperature). In additional embodiments, the solubility of active agents within potential excipients can range from 0.1-50 mg/mL.
# [2] = Evaluation of Elvitegravir for use in the device: solubility and dose; assay type: physicochemical
# Text: as §1
# [3] = non-polymeric refillable implant, rhesus macaques; cited from earlier work
# [4] = beagle dogs, cited from earlier work
smiles,measurement,setting,value
COc1cc2c(cc1Cc1cccc(Cl)c1F)c(=O)c(C(=O)O)cn2[C@H](CO)C(C)C [Elvitegravir],potency,[1],suboptimal potency
same,solubility,[2],relatively low solubility
"Nc1nc(=O)n([C@@H]2CS[C@H](CO)O2)cc1F [FTC, emtricitabine]",period of sustained levels of FTC-triphosphate (FTC-TP),[3],28 days
"CC(C)OC(=O)[C@H](C)N[P@](=O)(CO[C@H](C)Cn1cnc2c(N)ncnc21)Oc1ccccc1 [TAF, tenofovir alafenamide]",period of sustained levels of tenofovir diphosphate (TFV-DP) in PBMCs,[3],83 days
same,duration of drug delivery,[4]; subdermal silicone implant with PVA-coated channels,40 days
same,adverse events,[4]; subdermal silicone implant,without observed adverse events
